Experimental data published in patent publication US20240383893A1, “Hydroxamic Acid Compound Having ENPP1 Inhibitory Activity and Use Thereof” (Haihe Biopharma Co., Ltd., priority 2021, published 2024).
pIC50: −log10 of the molar value.

biological target: ENPP1 (hENPP1-ECD-His) (Homo sapiens (Human), UniProt P22413)
Sequence (P22413 98-925): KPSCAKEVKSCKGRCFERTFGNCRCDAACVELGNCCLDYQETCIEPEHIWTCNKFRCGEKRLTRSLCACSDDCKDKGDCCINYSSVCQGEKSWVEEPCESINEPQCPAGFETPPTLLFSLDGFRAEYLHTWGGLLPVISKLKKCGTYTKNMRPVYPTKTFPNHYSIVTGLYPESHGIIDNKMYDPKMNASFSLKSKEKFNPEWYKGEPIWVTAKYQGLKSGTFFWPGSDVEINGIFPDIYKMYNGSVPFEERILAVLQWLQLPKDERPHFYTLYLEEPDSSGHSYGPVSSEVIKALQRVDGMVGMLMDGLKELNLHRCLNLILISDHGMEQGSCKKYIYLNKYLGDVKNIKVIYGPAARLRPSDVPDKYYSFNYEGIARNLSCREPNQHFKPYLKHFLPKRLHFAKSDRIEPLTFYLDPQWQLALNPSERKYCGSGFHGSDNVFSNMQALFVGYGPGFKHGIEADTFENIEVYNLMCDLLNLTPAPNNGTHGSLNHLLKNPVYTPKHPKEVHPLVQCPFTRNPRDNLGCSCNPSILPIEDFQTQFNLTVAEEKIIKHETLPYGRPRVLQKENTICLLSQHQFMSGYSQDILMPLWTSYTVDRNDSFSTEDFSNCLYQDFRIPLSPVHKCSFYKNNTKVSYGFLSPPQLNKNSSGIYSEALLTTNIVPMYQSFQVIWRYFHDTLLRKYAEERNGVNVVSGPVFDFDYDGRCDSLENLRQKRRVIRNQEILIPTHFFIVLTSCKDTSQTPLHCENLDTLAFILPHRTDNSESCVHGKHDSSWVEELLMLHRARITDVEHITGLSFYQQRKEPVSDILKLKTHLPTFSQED

Row | SMILES | pIC50
1 | COc1ccc2c(Oc3ccc(C4(C(=O)NO)CCOCC4)cc3F)ccnc2n1 [Compound 136] | 8.36
2 | COc1ccc2c(Oc3ccc(C4(C(=O)NO)CCOCC4)cc3Cl)ccnc2n1 [Compound 138] | 8.22
3 | COc1ccc2c(NC3CCC(CC(=O)NO)C3)ccnc2n1 (centres unmarked) [Compound 142] | 7.89
4 | COc1ccc2c(NC3CCN(CC(=O)NO)C3)ccnc2n1 (centres unmarked) [Compound 143] | 8.33
5 | COc1ccc2c(NC3CCN(C(C)(C)C(=O)NO)C3)ccnc2n1 (centres unmarked) [Compound 144] | 6.59
6 | COc1ccc2c(Oc3ccc4c(c3)CCCC4C(=O)NO)ccnc2n1 (centres unmarked) [Compound 145] | 8.38
7 | COc1ccc2c(Oc3ccc(C4(C(=O)NO)CCN(C)CC4)cc3)ccnc2n1 [Compound 146] | 7.89
8 | COc1ccc2c(Oc3ccc(C(C(=O)NO)C(C)C)c(F)c3)ccnc2n1 (centres unmarked) [Compound 150] | 8.14
9 | COc1ccc2c(Nc3ncc(CC(=O)NO)cn3)ccnc2n1 [Compound 151] | 7.15
10 | COc1ccc2c(CN3CCC(C(C)(C)C(=O)NO)C3)ccnc2n1 (centres unmarked) [Compound 157] | 7.09
11 | COc1ccc2c(N3CCc4cc(C5(C(=O)NO)CCOCC5)ccc43)ccnc2n1 [Compound 158] | 8.00
12 | COc1ccc2c(Nc3ccc(C(C(=O)NO)C(C)C)c(F)c3)ccnc2n1 (centres unmarked) [Compound 160] | 7.82
13 | COc1ccc2c(Nc3ccc(C(C(=O)NO)C(C)C)cc3)ccnc2n1 (centres unmarked) [Compound 161] | 7.80
14 | COc1ccc2c(Nc3ccc(C4(C(=O)NO)CCOCC4)c(F)c3)ccnc2n1 [Compound 162] | 8.52
15 | COc1ccc2c(Nc3ccc(C4(C(=O)NO)CCOCC4)cc3)ccnc2c1 [Compound 164] | 8.47
16 | COc1ccc2c(Nc3cnn(C(C(=O)NO)C(C)C)c3)ccnc2n1 (centres unmarked) [Compound 167] | 6.99
17 | COc1ccc2c(Oc3ccc(C(C(=O)NO)C4CCCC4)cc3)ccnc2n1 (centres unmarked) [Compound 170] | 7.74
18 | COc1ccc2c(Oc3ccc(C(C)(C(=O)NO)C4CCOCC4)cc3)ccnc2n1 (centres unmarked) [Compound 172] | 8.51
19 | COc1ccc2c(Oc3ccc(C4(C(=O)NO)CCN(Cc5ccccc5)CC4)cc3)ccnc2n1 [Compound 173] | 8.80

Row | SMILES | pIC50
20 | COc1cc2nccc(Nc3ccc(C(C(=O)NO)C(C)C)cc3)c2cn1 (centres unmarked) [Compound 177] | 8.10
21 | COc1cc2nccc(Nc3c(F)cc(C(C(=O)NO)C(C)C)cc3F)c2cn1 (centres unmarked) [Compound 185] | 8.44
22 | COc1cc2nccc(Nc3cc(F)c(C(CC(C)C)C(=O)NO)c(F)c3)c2cn1 (centres unmarked) [Compound 186] | 8.42
23 | COc1cc2ncnc(Nc3ccc(C(C(=O)NO)C(C)C)cc3)c2cn1 (centres unmarked) [Compound 187] | 7.57
24 | COc1cc2ncnc(Nc3ccc(C(CC(C)C)C(=O)NO)cc3)c2cn1 (centres unmarked) [Compound 188] | 8.34
25 | COc1cc2nccc(Nc3ccc(CC(=O)NO)cc3F)c2cn1 [Compound 190] | 8.41
26 | COc1cc2nccc(Nc3cc(F)c(C(C(=O)NO)C(C)C)c(F)c3)c2cn1 (centres unmarked) [Compound 191] | 7.96
27 | Cc1noc2ncnc(Oc3ccc(C(C)(C)C(=O)NO)cc3)c12 [Compound 194, N-hydroxy-2-methyl-2-(4-((3-methylisoxazol[5,4-d]pyrimidin-4-yl)oxy)phenyl)propanamide] | 6.55
28 | COc1ccc2c(Oc3ccc(N4CCC[C@H]4C(=O)NO)cc3)ccnc2n1 [Compound 196, (S)—N-hydroxy-1-(4-((7-methoxy-1,8-naphthylidin-4-yl)oxy)phenyl)pyrrolidin-2-formamide] | 6.89
29 | Cn1ncc2c(Oc3ccc(C4(C(=O)NO)CCOCC4)c(Cl)c3)ccnc21 [Compound 197] | 6.95
30 | COc1ccc2c(Oc3ccc([C@@H](C(=O)NO)C4CCOCC4)c(F)c3)ccnc2n1 [Compound 198] | 7.21
31 | COc1ccc2c(Oc3ccc(C(CC(C)C)C(=O)NO)c(F)c3)ccnc2n1 (centres unmarked) [Compound 201] | 7.96
32 | COc1ccc2c(N[C@H]3CCN(C(C)(C)C(=O)NO)C3)ccnc2n1 [Compound 202] | 8.48
33 | COc1ccc2c(N3CCc4cc(CC(=O)NO)ccc43)ccnc2n1 [Compound 204] | 7.62
34 | COc1ccc2c(O[C@H]3CCN(C(C)(C)C(=O)NO)C3)ccnc2n1 [Compound 205] | 7.41
35 | COc1ccc2c(Oc3ccc([C@H](C(=O)NO)C4CCOCC4)c(F)c3)ccnc2n1 [Compound 206] | 7.92
36 | Cn1ncc2c(Nc3ccc(C4(C(=O)NO)CCOCC4)cc3)ncnc21 [Compound 207] | 8.03
37 | COc1cc2nccc(Nc3ccc(CC(=O)NO)cc3)c2cc1OC [Example A-1, reference compound] | 7.05
38 | CONC(=O)C(C)(C)c1ccc(Oc2ccnc3cc(OC)c(OC)cc23)cc1 [Example A-2, reference compound] | 5.48

Continued, values first:

Row | pIC50 | SMILES
39 | 8.59 | COc1ccc2c(Oc3c(F)cc(C4(C(=O)NO)CCOCC4)cc3F)ccnc2n1 [Compound 137]
40 | 8.64 | COc1ccc2c(Oc3ccc(C4(C(=O)NO)CCOCC4)c(C)c3)ccnc2n1 [Compound 139]
41 | 8.85 | COc1ccc2c(Cc3ccc(C4(C(=O)NO)CCCC4)cc3)ccnc2n1 [Compound 141, N-hydroxy-1-(4-((7-methoxy-1,8-naphthylidin-4-yl)methyl)phenyl)cyclopentane-1-formamide]
42 | 8.82 | COc1ccc2c(Nc3ccc(C(C)(C)C(=O)NO)cc3)cnnc2c1 [Compound 147]
43 | 8.55 | COc1ccc2c(Oc3ccc(C(N)C(=O)NO)cc3)ccnc2n1 (centres unmarked) [Compound 148]
44 | 8.54 | CCn1ncc2c(Nc3ccc(C4(C(=O)NO)CCOCC4)cc3)ccnc21 [Compound 163]
45 | 8.74 | COc1ccc2c(Cc3ccc(C4(C(=O)NO)CCOCC4)cc3)ccnc2n1 [Compound 171]
46 | 8.68 | COc1ccc2c(Nc3cnn(C4(C(=O)NO)CCOCC4)c3)ccnc2n1 [Compound 174]
47 | 8.72 | COc1ccc2c(Oc3ccc(C4(C(=O)NO)CCCOCC4)cc3)ccnc2n1 (centres unmarked) [Compound 175]
48 | 8.54 | COc1ccc2c(Oc3ccc(C4(C(=O)NO)CC5CCC(C4)O5)cc3)ccnc2n1 (centres unmarked) [Compound 176]
49 | 8.92 | COc1cc2nccc(Nc3ccc(C4(C(=O)NO)CCOCC4)cc3F)c2cn1 [Compound 178]
50 | 9.00 | COc1cc2nccc(Nc3ccc(C(CC(C)C)C(=O)NO)cc3)c2cn1 (centres unmarked) [Compound 179]
51 | 8.80 | COc1ccc2c(Nc3ccc(C4(C(=O)NO)CCOCC4)cc3)c(C#N)cnc2c1 [Compound 180]
52 | 8.72 | COc1cc2nccc(Nc3ccc(C4(C(=O)NO)CCOCC4)c(F)c3)c2cn1 [Compound 181]
53 | 8.77 | COc1ccc2c(Nc3ccc(C(CC(C)C)C(=O)NO)cc3)ccnc2n1 (centres unmarked) [Compound 182]
54 | 8.66 | COc1cc2nccc(Nc3c(F)cc(C(CC(C)C)C(=O)NO)cc3F)c2cn1 (centres unmarked) [Compound 184]
55 | 8.74 | COc1cc2nccc(Nc3ccc(CC(=O)NO)c(F)c3)c2cn1 [Compound 189]
56 | 8.85 | CCn1ncc2c(Nc3ccc(CC(=O)NO)cc3F)ccnc21 [Compound 192]
57 | 8.66 | CCn1ncc2c(Nc3ccc(CC(=O)NO)c(F)c3)ccnc21 [Compound 193]
58 | 8.74 | COc1ccc2c(Oc3ccc4c(c3)CCCC4(C)C(=O)NO)ccnc2n1 (centres unmarked) [Compound 203]
59 | 8.74 | COc1ccc2c(Nc3ccc(CC(=O)NO)cc3)ncnc2n1 [Example 1, N-hydroxy-2-(4-((7-methoxypyridino[2,3-d]pyrimidin-4-yl)amino)phenyl)acetamide]
